Our source for the Dose values is ChEMBL document CHEMBL1123520, “Digitoxigenin 3-O-beta-D-furanosides” (1986).

Common to all, as to assay type: functional
Assay [1] is filed under the species Cavia porcellus. As to the kind of experiment: Dose required to produce 75% increase in developed tension of inotropic effect in guinea pig atria.
The species named for assay [2] is Cavia porcellus. Kind of assay: Dose required to produce negative inotropic (NI) effect in Guinea pig atria.
The species entered for assay [3] is Cavia porcellus. Kind of assay: Dose required to produce 50% increase in developed tension of inotropic effect in guinea pig atria.
For assay [4], the species on record is Cavia porcellus. As to the kind of experiment: Dose required to produce arrhythmia (A) on Guinea pig atria.
The species entered for assay [5] is Cavia porcellus. As to the kind of experiment: Dose required to produce negative inotropic (NI) or arrhythmia (A) effect in Guinea pig atria.
Assay [6] is filed under the species Cavia porcellus. As to the kind of experiment: Dose required to produce negative inotropic (NI) effect in Guinea pig atria; MI is Minimal Activity.
The species entered for assay [7] is Cavia porcellus. As to the kind of experiment: Dose required to produce 75% increase in developed tension of inotropic effect in guinea pig atria; MI is Minimal Activity.

With `C[C@]12CC[C@H](O)C[C@H]1CC[C@@H]1[C@@H]2CC[C@]2(C)[C@@H](C3=CC(=O)OC3)CC[C@]12O` [DIGITOXIGENIN], the Dose in assay [1] was determined as 0.64 µM; in assay [2], 2.5 µM; in assay [3], 0.38 µM.

As for `C[C@]12CCC(O[C@@H]3O[C@H]4[C@H](NC[C@H]4O)[C@H]3O)CC1CC[C@@H]1[C@@H]2CC[C@]2(C)[C@@H](C3=CC(=O)OC3)CC[C@@]12O` (stereo not given in full), the Dose worked out at 0.86 µM in assay [1], 2 µM in assay [2], 0.5 µM in assay [3] and 1.5 µM in assay [4].

For the molecule `C[C@H]1O[C@@H](O[C@H]2[C@@H](O)C[C@H](O[C@H]3[C@@H](O)C[C@H](O[C@H]4CC[C@@]5(C)[C@H](CC[C@@H]6[C@@H]5C[C@@H](O)[C@]5(C)[C@@H](C7=CC(=O)OC7)CC[C@]65O)C4)O[C@@H]3C)O[C@@H]2C)C[C@H](O)[C@@H]1O` [DIGOXIN], the Dose in assay [1] was 0.82 µM; in assay [2], 2.5 µM; in assay [3], 0.42 µM.

Turning to `CC(=O)O[C@H]1[C@H](OC2CC[C@@]3(C)C(CC[C@@H]4[C@@H]3CC[C@]3(C)[C@@H](C5=CC(=O)OC5)CC[C@@]43O)C2)O[C@H]2[C@@H]1N(C(=O)C(F)(F)F)C[C@H]2OC(C)=O` (stereo not given in full), the Dose in assay [1] amounted to 0.65 µM; in assay [2], 1 µM; in assay [3], 0.54 µM; in assay [4] it was 0.75 µM.

As for `C[C@]12CC[C@H](O[C@@H]3O[C@H](CN=[N+]=[N-])[C@@H](O)[C@H]3O)C[C@@H]1CC[C@@H]1[C@@H]2CC[C@]2(C)[C@@H](C3=CC(=O)OC3)CC[C@@]12O`, the Dose in assay [1] stood at 0.43 µM; in assay [3], 0.25 µM; in assay [5] it was 1 µM.

For `C[C@]12CC[C@H](O[C@@H]3O[C@H](CN)[C@@H](O)[C@H]3O)C[C@@H]1CC[C@@H]1[C@@H]2CC[C@]2(C)[C@@H](C3=CC(=O)OC3)CC[C@@]12O`, the figures for the Dose in assay [1], in assay [3] and in assay [5] were 0.35 µM, 0.26 µM and 5 µM, respectively.

In the case of `CC(=O)O[C@H]1[C@H](OC2CC[C@@]3(C)C(CCC4[C@@H]3CC[C@]3(C)[C@@H](C5=CC(=O)OC5)CC[C@@]43O)C2)O[C@H](CN=[N+]=[N-])[C@H]1OC(C)=O` (stereo not given in full), the Dose in assay [1] is 0.44 µM; in assay [2] it was 2.5 µM; in assay [3], 0.3 µM.

On to `CC(=O)O[C@H]1[C@H](OC2CC[C@@]3(C)C(CC[C@@H]4[C@@H]3CC[C@]3(C)[C@@H](C5=CC(=O)OC5)CC[C@@]43O)C2)O[C@H]2[C@@H]1OC[C@H]2OC(C)=O` (stereo not given in full), for which the Dose in assay [1] was 0.53 µM; in assay [3], 0.39 µM; in assay [5], 1 µM.

In the case of `C[C@]12CC[C@H](O[C@@H]3O[C@H](CO)[C@@H](O)[C@H]3O)C[C@@H]1CC[C@@H]1[C@@H]2CC[C@]2(C)[C@@H](C3=CC(=O)OC3)CC[C@@]12O`, the Dose in assay [1] is 0.64 µM; in assay [2], 2.5 µM; in assay [3] it was 0.36 µM.

Consider `CC(=O)OC[C@H]1O[C@@H](OC2CC[C@@]3(C)C(CC[C@@H]4[C@@H]3CC[C@]3(C)[C@@H](C5=CC(=O)OC5)CC[C@@]43O)C2)[C@H](OC(C)=O)[C@@H]1OC(C)=O` (stereo not given in full), for which the results for the Dose entry in assay [6], in assay [1] and in assay [3] were “Minimal activity”, 3 µM and 1.9 µM, respectively.

Regarding `C[C@]12CCC(O[C@@H]3O[C@H]4[C@H](OC[C@H]4O)[C@H]3O)CC1CC[C@@H]1[C@@H]2CC[C@]2(C)[C@@H](C3=CC(=O)OC3)CC[C@@]12O` (stereo not given in full), the Dose result is “Minimal activity” in assay [6], “Minimal activity” in assay [7] and 10 µM in assay [3].
